Measurements reported in ChEMBL document CHEMBL1140542, “Cryptadines A and B, novel C27N3-type pentacyclic alkaloids from Lycopodium cryptomerinum” (Bioorg Med Chem, 2007).

Biological target: T1, Acetylcholinesterase (Bos taurus, UniProt P23795)
T1 sequence (P23795 whole entry): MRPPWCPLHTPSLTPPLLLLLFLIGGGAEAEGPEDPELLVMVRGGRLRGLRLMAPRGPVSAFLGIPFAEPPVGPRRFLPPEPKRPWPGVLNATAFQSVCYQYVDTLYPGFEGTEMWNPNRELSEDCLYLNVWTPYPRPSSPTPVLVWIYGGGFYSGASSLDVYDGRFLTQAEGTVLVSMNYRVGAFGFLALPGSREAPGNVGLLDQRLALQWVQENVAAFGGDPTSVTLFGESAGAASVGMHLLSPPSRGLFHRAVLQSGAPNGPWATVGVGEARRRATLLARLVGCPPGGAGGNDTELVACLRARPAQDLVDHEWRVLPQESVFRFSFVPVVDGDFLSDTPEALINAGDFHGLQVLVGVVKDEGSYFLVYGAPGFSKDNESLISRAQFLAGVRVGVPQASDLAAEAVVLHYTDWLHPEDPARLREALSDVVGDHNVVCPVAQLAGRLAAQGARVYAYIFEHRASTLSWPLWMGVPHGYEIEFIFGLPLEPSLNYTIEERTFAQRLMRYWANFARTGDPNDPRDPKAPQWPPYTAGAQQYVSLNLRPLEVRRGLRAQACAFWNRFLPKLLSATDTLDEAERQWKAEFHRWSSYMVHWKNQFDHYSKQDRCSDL
Assay: Inhibition of bovine acetylcholinesterase

Compound	IC50 [µM]
CC(=O)N1CCCC2=C(C[C@H]3CCC[C@H](CC4=C5CCCN(C)[C@H]5C[C@@H](C)C4)N3)C[C@H](C)C[C@@H]21 [CRYPTADINE A]	106
CC(=O)N1CCCC2=C(C[C@H]3CCC[C@H](CC4=C5CCCN(C)[C@H]5C[C@H](C)C4)N3)C[C@H](C)C[C@@H]21 [CRYPTADINE B]	18.5
